In ChEMBL document CHEMBL1201862, “PubChem BioAssay data set” (2004) one finds IC50, EC50 and AC50 data, which are given here for nine compounds.

Activity calls are given as the source filed them. Bounds are passed on as bounds.

The target in test [1] is T1, Neuropeptides B/W receptor type 1 (Homo sapiens, UniProt P48145).
T1 sequence (P48145 whole entry): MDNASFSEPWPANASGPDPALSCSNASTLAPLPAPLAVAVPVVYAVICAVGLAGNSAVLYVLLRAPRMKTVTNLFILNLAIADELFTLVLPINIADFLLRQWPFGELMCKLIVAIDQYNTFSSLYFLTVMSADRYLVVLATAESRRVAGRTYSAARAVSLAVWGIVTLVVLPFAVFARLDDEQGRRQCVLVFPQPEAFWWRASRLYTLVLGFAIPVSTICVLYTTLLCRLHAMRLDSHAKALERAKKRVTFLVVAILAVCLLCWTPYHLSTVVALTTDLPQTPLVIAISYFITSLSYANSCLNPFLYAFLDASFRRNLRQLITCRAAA
In words: Fluorescence-based dose response cell-based high throughput screening assay to identify antagonists of the G-protein coupled receptor 7 (GPR7). [Related pubchem assays: 1952 (Screening assay (GPR7 antagonists).), 1880 (Summary AID.)]. The test is classed as functional.

Test [2] addresses Melanin-concentrating hormone receptor 1 (Homo sapiens, UniProt Q99705). Briefly: Fluorescence-based counterscreen for antagonists of the G-protein coupled receptor 7 (GPR7): cell-based high throughput dose response assay to identify antagonists of the melanin-concentrating hormone receptor 1 (MCHR1). It is filed as functional. Background: Counterscreens check selectivity or assay interference.

Another test concerns the target Ephrin type-A receptor 4 (Mus musculus, UniProt Q03137). Briefly: EphA4 ligand-binding antagonists – biochemical, colorimetric, mouse EphA4, primary screen (AID 689). It is filed as functional.
Test [3] has as its target E3 ubiquitin-protein ligase Mdm2 (Homo sapiens, UniProt Q00987). In words: MDM2-luc reporter signal enhancers, multi-concentration potency testing, MDM2 ubiquitin-protein ligase inhibitor program, whole-cell format, luminescence detection, 384-well microplate (AID 1394).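 Note: MDM2 E3 inhibitors raise luminescence so EC50 is for signal enhancement.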 It is filed as functional.
A short description of test [4]: Luminescence Cell-Based Dose Confirmation HTS to Identify Activators of 5'UTR Stem-Loop Driven Alpha-Synuclein mRNA Translation in H4 Neuroglioblastoma Cells. [Related pubchem assays: 1829 (Project Summary), 1814 (Primary HTS)]. The test is classed as functional.
Test [5] is described as follows: DRD fibroblast viability loss – cell-based, non-viral oncogenic, luminescence, dose response (AID 1934). It is filed as functional. As to conditions: Homo sapiens.
In test [6] the test system is BJ. In words: BJ-TERT fibroblast viability loss – cell-based, RAS-independent, luminescence, dose response (AID 1933). The following applies: Homo sapiens. It is filed as functional.
Test [7] can be described thus: Luminescence Cell-Based Dose Response to Identify Activators of 5'UTR Stem-Loop Driven Prion Protein mRNA Translation in H4-C Neuroglioblastoma Cells. [Related pubchem assays: 1829 (Project Summary), 1814 (Primary HTS)]. The test is classed as functional.
Test [8] has as its system BJ. Briefly: BJ-TERT-LT-ST fibroblast viability loss – cell-based, RAS-independent, luminescence, dose response (AID 1935).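 Note: BJ fibroblasts immortalized with TERT plus LT and ST oncogenes.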 The test is classed as functional. As to conditions: Homo sapiens.
The subject of another test is H4. In words: Luminescence Cell-Based Dose Response HTS to Identify Activators of 5'UTR Stem-Loop Driven Prion Protein mRNA Translation in H4 Neuroglioblastoma Cells. [Related pubchem assays: 1829 (Project Summary), 1814 (Primary HTS)]. The test is classed as functional. As to conditions: Homo sapiens.
In test [9] the test system is BJ. Briefly: cells. It is filed as functional, cell-based. The following applies: Homo sapiens.
A short description of test [10]: Luminescence Cell-Based Dose Confirmation to Identify Activators of 5'UTR Stem-Loop Driven Alpha-Synuclein mRNA Translation in H4 Neuroglioblastoma Cells. [Related pubchem assays: 1829 (Project Summary), 1814 (Primary HTS)]. It is filed as functional.
Test [11] can be described thus: Luminescence Cell-Based Dose Response HTS to Identify Activators of Luciferase Translation or Activity in H4 […] Cells. [Related pubchem assays: 1829 (Project Summary), 1814 (Primary HTS)]. It is filed as functional.
Test [12] is described as follows: Luminescence Cell-Based Dose Response to Identify Activators of Luciferase Translation or Activity in H4-C Neuroglioblastoma Cells. [Related pubchem assays: 1829 (Project Summary), 1814 (Primary HTS)]. It is filed as functional.
Another test addresses Large T antigen (Simian virus 40, UniProt P03070). It is filed as functional, Betapolyomavirus macacae.
Test [13] addresses T2, Sentrin-specific protease 8 (Homo sapiens, UniProt Q96LD8).
T2 sequence (Q96LD8 whole entry): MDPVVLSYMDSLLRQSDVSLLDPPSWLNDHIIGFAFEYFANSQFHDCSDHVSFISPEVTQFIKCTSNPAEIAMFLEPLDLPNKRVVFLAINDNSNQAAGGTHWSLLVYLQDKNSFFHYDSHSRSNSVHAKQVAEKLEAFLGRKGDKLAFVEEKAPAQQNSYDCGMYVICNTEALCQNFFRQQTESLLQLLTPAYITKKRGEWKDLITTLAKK
The test is classed as functional.

Test [14] addresses T3, Estrogen receptor beta (Homo sapiens, UniProt Q92731). Briefly: blockers of SRC-3 recruitment to ERβ – biochemical, ELISA, streptavidin-HRP readout, orthogonal assay, confirmation (AID 1060).
For test [15], the target named is T4, Rac GTPase-activating protein 1 (Homo sapiens, UniProt Q9H0H5).
T4 sequence (Q9H0H5 whole entry): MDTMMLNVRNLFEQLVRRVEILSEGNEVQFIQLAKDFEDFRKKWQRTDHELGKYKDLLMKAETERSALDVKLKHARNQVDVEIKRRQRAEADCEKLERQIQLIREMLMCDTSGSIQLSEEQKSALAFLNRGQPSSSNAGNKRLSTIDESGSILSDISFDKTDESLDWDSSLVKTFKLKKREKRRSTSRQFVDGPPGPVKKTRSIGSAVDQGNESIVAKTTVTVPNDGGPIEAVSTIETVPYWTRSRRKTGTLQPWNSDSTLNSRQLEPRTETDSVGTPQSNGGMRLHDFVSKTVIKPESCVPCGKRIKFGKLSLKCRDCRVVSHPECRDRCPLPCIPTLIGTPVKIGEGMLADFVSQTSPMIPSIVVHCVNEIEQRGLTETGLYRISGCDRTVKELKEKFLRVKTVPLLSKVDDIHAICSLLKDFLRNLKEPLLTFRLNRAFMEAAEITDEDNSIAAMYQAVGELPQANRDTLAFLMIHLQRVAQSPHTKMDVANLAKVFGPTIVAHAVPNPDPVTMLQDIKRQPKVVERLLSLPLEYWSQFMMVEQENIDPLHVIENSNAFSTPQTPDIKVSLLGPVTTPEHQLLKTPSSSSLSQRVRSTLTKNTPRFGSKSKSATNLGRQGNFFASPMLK
Briefly: blockers of MgcRacGAP-driven Rac1 GTP hydrolysis – biochemical, ADP Hunter fluorescence, primary and confirmatory, confirmation (AID 624330). The test is classed as functional.

Test [16] addresses T3, Estrogen receptor beta.
Test [17] has as its target T2, Sentrin-specific protease 8. It is filed as functional. The source holds these as a separate data set.
Test [18] deals with T5, Mannose-6-phosphate isomerase (Homo sapiens, UniProt P34949).
T5 sequence (P34949 whole entry): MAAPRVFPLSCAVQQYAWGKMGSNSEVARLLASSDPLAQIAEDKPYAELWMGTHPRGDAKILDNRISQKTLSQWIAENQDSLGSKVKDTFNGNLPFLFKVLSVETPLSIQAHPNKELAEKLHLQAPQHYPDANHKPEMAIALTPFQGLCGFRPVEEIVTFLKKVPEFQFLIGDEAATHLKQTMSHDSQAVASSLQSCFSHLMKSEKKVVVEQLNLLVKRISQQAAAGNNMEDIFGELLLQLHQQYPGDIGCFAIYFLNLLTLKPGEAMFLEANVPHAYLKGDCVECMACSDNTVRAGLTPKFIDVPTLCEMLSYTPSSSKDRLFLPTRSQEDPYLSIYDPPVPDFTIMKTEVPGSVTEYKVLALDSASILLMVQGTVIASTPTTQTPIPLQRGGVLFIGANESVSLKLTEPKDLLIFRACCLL
Briefly: MPI inhibition at elevated mannose 6-phosphate – biochemical, fluorescence intensity, high mannose 6-phosphate, primary screen (AID 1220).

In the next test the target is T6, Cytochrome P450 1A2 (Homo sapiens, UniProt P05177).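 Note: PubChem cytochrome P450 panel assay, CYP1A2 panel member.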
T6 sequence (P05177 whole entry): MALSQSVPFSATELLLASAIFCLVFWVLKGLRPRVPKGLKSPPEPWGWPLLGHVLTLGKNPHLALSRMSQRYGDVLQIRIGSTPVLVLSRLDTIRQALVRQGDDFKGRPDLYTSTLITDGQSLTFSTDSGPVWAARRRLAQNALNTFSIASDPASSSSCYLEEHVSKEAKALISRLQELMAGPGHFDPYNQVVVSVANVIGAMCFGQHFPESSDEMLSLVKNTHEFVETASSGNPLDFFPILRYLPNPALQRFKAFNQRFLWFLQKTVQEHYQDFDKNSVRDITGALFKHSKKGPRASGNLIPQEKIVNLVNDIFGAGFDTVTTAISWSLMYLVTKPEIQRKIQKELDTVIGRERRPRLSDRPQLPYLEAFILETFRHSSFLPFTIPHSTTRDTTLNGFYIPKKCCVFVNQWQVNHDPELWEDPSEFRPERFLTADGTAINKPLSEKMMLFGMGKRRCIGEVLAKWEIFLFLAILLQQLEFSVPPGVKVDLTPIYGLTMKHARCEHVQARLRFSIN

Chain of Melanin-concentrating hormone receptor 1 (Q99705 whole entry): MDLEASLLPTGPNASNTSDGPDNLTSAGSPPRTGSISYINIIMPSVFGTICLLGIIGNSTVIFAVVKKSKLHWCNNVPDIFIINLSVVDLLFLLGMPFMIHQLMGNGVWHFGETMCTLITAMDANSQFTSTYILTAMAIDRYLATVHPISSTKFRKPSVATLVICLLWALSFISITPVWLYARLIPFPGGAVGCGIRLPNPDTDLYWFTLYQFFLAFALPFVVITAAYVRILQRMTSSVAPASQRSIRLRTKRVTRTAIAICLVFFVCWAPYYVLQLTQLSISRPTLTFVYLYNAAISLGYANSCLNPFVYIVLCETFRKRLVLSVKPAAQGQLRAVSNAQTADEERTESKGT
Chain of E3 ubiquitin-protein ligase Mdm2 (Q00987 whole entry): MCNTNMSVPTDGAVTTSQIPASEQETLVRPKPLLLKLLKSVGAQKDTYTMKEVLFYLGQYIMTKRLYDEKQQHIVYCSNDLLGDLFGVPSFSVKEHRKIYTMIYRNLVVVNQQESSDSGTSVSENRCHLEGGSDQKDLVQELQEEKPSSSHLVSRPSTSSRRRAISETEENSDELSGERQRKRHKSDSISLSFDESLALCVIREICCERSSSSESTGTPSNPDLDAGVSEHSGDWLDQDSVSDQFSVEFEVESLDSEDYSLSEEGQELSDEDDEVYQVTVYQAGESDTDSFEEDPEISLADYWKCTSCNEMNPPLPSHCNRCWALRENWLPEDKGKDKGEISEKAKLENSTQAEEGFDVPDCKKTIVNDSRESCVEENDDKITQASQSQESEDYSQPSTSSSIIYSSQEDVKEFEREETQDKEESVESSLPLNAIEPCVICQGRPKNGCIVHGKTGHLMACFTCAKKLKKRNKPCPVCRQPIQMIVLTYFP
T3 sequence (Q92731 whole entry): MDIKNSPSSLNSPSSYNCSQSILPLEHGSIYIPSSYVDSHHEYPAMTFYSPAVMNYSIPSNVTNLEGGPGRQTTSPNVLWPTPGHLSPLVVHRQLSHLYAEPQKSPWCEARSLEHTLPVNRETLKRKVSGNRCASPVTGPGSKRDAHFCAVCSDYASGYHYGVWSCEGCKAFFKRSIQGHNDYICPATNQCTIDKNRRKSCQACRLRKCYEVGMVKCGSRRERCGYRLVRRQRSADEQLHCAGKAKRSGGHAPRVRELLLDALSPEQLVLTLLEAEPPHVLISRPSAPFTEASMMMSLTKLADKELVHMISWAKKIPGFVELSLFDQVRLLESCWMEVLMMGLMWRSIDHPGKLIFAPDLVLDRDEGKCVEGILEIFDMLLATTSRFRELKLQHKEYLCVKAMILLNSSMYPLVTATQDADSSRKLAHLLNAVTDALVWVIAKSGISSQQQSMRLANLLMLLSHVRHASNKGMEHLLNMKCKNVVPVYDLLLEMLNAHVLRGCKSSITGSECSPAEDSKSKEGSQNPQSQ
Chain of Large T antigen (P03070 whole entry): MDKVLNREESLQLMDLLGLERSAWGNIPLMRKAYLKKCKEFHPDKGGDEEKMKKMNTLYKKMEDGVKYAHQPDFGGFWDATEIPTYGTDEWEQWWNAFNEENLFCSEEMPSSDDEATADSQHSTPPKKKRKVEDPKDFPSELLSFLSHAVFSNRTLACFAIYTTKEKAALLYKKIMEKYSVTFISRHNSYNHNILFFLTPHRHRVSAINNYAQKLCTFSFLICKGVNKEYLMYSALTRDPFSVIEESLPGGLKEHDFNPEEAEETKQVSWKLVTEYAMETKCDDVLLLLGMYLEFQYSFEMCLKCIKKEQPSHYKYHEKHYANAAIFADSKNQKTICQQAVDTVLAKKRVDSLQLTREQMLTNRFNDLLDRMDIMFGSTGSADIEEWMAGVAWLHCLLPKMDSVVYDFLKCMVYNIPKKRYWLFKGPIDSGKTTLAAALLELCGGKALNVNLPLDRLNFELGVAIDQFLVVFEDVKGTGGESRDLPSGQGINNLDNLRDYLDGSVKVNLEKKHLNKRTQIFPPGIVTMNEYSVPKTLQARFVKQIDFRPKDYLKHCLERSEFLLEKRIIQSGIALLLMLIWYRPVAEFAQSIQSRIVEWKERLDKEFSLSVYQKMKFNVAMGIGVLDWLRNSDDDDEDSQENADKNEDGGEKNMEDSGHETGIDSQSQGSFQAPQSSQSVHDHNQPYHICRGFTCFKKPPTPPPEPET
Chain of Ephrin type-A receptor 4 (Q03137 whole entry): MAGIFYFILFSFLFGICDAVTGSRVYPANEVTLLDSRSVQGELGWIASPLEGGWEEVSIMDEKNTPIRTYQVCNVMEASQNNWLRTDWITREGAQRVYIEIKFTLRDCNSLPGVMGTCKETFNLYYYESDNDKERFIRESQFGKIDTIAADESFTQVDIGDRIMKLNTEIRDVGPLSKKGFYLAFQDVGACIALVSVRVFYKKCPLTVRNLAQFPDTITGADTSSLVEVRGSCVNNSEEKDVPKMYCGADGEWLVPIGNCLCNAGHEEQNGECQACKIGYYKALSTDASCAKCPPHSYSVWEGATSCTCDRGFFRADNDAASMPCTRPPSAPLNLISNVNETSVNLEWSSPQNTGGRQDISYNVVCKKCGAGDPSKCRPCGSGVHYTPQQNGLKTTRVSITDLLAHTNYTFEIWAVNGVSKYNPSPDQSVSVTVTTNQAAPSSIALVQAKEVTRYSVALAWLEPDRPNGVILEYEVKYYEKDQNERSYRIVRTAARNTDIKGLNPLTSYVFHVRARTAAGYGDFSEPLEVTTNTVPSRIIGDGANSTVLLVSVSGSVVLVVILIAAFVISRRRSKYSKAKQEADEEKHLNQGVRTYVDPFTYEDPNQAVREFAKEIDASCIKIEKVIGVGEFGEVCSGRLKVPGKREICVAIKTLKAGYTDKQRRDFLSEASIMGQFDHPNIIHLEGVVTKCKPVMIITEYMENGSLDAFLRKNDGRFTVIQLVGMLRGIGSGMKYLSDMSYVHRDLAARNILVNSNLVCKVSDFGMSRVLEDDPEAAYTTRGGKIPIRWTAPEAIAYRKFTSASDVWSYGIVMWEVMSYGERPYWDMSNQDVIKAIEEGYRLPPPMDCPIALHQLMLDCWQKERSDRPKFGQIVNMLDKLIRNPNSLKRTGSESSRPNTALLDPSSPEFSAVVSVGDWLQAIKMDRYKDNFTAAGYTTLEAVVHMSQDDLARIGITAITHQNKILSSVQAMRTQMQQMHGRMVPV

Usually IC50 stands for the midpoint of a concentration-inhibition curve. Regarding `CCOc1ccc([N+](=O)[O-])cc1CNC1CCCCCCC1`, the IC50 in test [1] was 27.3 µM (not active); in [2], 12.6 µM (not active).

As to `CCn1c(COc2ccccc2C)nnc1SCC(=O)Nc1cc(C)on1`, on Ephrin type-A receptor 4, the IC50 is on record as > 100 µM (not active).

Usually EC50 stands for the concentration that produces a half-maximal response. For the compound `O=C(NC1CCCCC1)C(c1cccnc1)N(C(=O)c1ccc(Cl)nc1)C1CCCCC1` (configuration not stated), the EC50 in [3] was 12.7 µM (not active).

Turning to `C=CCN(c1cccc(C(F)(F)F)c1)S(=O)(=O)c1cccc(C(=O)OCC(=O)NCCC)c1`, in test [3], the EC50 was 277 µM (not active).

In the case of `N#CC1=C(SCC(=O)c2ccccc2)N=C2CCCC(O)=C2C1c1ccco1` (configuration not stated), the EC50 in test [4] was > 120 µM (not active); in test [5], 19.3 µM (inconclusive); in the test on BJ [6], 2.85 µM (active); in [7], 1.22 µM (active); in the test with BJ [8], 18.9 µM (active); in the test with H4 it was > 120 µM (not active). Moreover, the EC50 in the test on BJ [9] is 42.1 µM (inconclusive); in [10], 0.464 µM (active); in test [11], < 0.1 µM (active); in test [12], 0.395 µM (active).

With `COc1ccc(C(CNC(=O)COc2ccc(Cl)c(C)c2)N2CCCCC2)cc1` (configuration not stated), the IC50 in test [1] was > 4.87 µM (active); in test [2], 11.3 µM (not active).

On to `O=C(Nc1ccc(O)cc1)C1CC=CCC1` (configuration not stated), for which the IC50 is 16.4 µM (active) at Large T antigen; 19.1 µM (active) in test [13]; 0.124 µM (not active) at Estrogen receptor beta [14]; 40.7 µM (active) in [15]; 3.2 µM (active) on Estrogen receptor beta [16]; 25.1 µM (active) in test [17].

As to `COc1ccc(C2CC2/C(=N/O)c2ccccn2)cc1` (configuration not stated), the IC50 in test [1] and in [2] was > 43.8 µM (not active) throughout.

What is called AC50 is the midpoint of the concentration-response curve, whichever way the signal moves. On to `Brc1c(NC2=NCCN2)ccc2nccnc12` [BRIMONIDINE], for which the IC50 in test [18] is on record as > 50 µM (not active). Besides, the AC50 at Cytochrome P450 1A2 was 39.8 µM (inconclusive).
